Results taken from patent publication US20250214978A1, “AT2R AGONIST” (WUHAN HUMANWELL INNOVATIVE DRUG RESEARCH AND DEVELOPMENT …, priority 2022, published 2025).
Like-named read-outs stand apart in the source and are kept apart here.

Experiments:
Assay type in all cases: in vitro ADME
[1] = Free plasma protein binding (PPB) assay, equilibrium dialysis; settings: dialysis 6 hours at 37° C.
Experimental: The dried dialysis membrane was soaked in ultrapure water for 1 hour, then soaked in 20% ethanol for 20 minutes, and then rinsed with ultrapure water for 2 to 3 times. Finally, the dried dialysis membrane was soaked in ultrapure water for 20 minutes for later use. The frozen plasma was thawed in a water bath at 37° C. for about 20 minutes. pH value of the plasma was measured after thawing was complete, and was adjusted to 7.4 with 1% phosphoric acid solution or 0.1M sodium hydroxide solution. […] The pretreated dialysis membrane was assembled into the dialysis plate according to product instructions, and 100 μL of receiving solution (100 mM phosphate buffer solution plus 0.002% Tween 80) was added to one side of the permeable membrane in each dialysis well. 20 μL of each of the final solution of the test compound and the final solution of the control compound were taken in a 96-well sample plate, two duplicate samples were made, and T0 sample was obtained, which was stored in a −20° C. refrigerator. Another 100 μL of each of the above-mentioned final solutions were taken to the other side of the membrane in the dialysis device, two duplicate samples were made, and incubated at 37° C. with constant shaking for 6 hours. After 6 hours of incubation, 20 μL of each of the dialyzed receiving solution and the administered plasma were taken, two duplicate samples were made, and sample A and sample B were obtained. Corresponding blank plasma or receiving solution of corresponding volume were added to sample B and sample A, respectively, allowing the volume ratio of plasma to buffer in each sample well to be 1:1. 300 μL of sample-containing internal standard acetonitrile solution was added to all the sample wells. The mixture was mixed well, and centrifuged at 5,500×g for 10 minutes. 150 μL of corresponding ultrapure water was added to the corresponding sample wells of the 96-well sample plate. 150 μL of the supernatant was taken into the sample wells, and mixed well. Then, LC/MS/MS analysis was performed. The calculation formula of fu is: […]
where: CR: peak area ratio measured in the receiving chamber well CD: peak area ratio measured in the supply chamber well.

[2] = Bidirectional permeability study in CACO-2 cells; settings: human, pH 7.4, Caco-2 monolayer, pH 7.40
Experimental: Caco-2 cells were inoculated onto polyethylene membrane (PET) in 96-well inserted plates at a rate of 1×10^5 cells/cm^2, and the medium was changed every 4 to 5 days until day 21 to 28, to form a fused cell monolayer. The transport buffer in the assay was HBSS and 10.0 mM HEPES, with a pH of 7.40±0.05. The test compounds were subjected to a bidirectional test at 2.00 μM in the presence and absence of GF120918 (10.0 μM). Digoxin was subjected to a bidirectional test at 10.0 μM in the presence and absence of GF120918 (10.0 μM), while Nadolol and Metoprolol were subjected to a test from direction A to direction B at 2.00 μM in the absence of GF120918 (10.0 μM). The above tests were performed in duplicate. The final concentration of DMSO was adjusted to be lower than 1%. The plate was incubated in a CO2 incubator at 37° C.±1° C. for 2 hours, and 5% CO2 was added under saturated humidity without shaking. All the samples, after being mixed with acetonitrile containing internal standard, were centrifuged at 3,200 g for 10 minutes. […] The concentrations of the test compounds and control compounds in the starting solution, the donor solution, and the acceptor solution were quantified by LC-MS/MS based on a peak area ratio of the analyte to the internal standard.
After the transport assay, the integrity of the Caco-2 cell monolayer was determined using Lucifer Yellow Exclusion Assay.

[3] = Liver microsome stability assay; settings: dog; Canine liver microsomes; read-out: T1/2 (min) Canine
[4] = Liver microsome stability assay; settings: Mouse liver microsomes; read-out: T1/2 (min) Mouse

- fraction unbound at 6 h, 1 μM ([1]; dog, pH 7.4, Canine plasma, read-out: fu % Canine): 0.0141
- fraction unbound at 6 h, 1 μM ([1]; pH 7.4, Human plasma, read-out: fu % Human): 0.008
- fraction unbound at 6 h, 1 μM ([1]; pH 7.4, Mouse plasma, read-out: fu % Mouse): 0.0093
- fraction unbound at 6 h, 1 μM ([1]; pH 7.4, Rat plasma, read-out: fu % Rat): 0.0289
- Papp A→B at 2 h, 2 μM [2]: 3.13 ×10⁻⁶ cm/s
- half-life at 1 μM [3]: 122 min
- half-life at 1 μM [4]: 61.9 min
Compound: COC(=O)NS(=O)(=O)c1sc(CC(C)C)c(C)c1-c1ccc(Cn2ccnc2Cl)cc1 [Compound I-34, Methyl ((3-(4-((2-chloro-1H-imidazol-1-yl)methyl)phenyl)-5-isobutyl-4-methylthiophen-2-yl)sulfonyl)carbamate]
